Key:
HL60 cells [1] = assay: Marker gene expression ratios to GAPDH in HL60 control cells (multiplex RT-PCR, direct gene dendrimer readout); assay type: cell-based; conditions: for Ave IL1RN/GAPDH / Ave SPP1/GAPDH / IL1RN fold increase over AML / SPP1 fold increase over AML: HL60 cells; for Ave IL1RN/GAPDH / Ave SPP1/GAPDH: highest stringency filter of 50% dilution, 1 uM ATRA or 10 nM PMA; for IL1RN fold increase over AML / SPP1 fold increase over AML: versus undifferentiated HL60 (AML)
HL60 cells [2] = assay: HL60 cell differentiation on exposure to inducing chemical; assay type: cell-based
Protocol: HL60 cells, provided by American Type Cell Culture (Manassas, Va.), were grown in RPMI medium 1640 with 10% fetal bovine serum (Sigma, St. Louis, Mo.) and 1% penicillin-streptomycin. For design of the model, neutrophil differentiation was stimulated with 1 uM ATRA (Sigma, St. Louis, Mo.) for 0, 24, 48, 72, and 120 hours and with 1.25% dimethyl sulfoxide (DMSO) (American Bioanalytical, Natick, Mass.) for 72 hours. Monocyte/macrophage differentiation was induced with 10 nM phorbol 12-myristate 13-acetate (PMA) (Sigma, St. Louis, Mo.) for 0, 4, 12, and 24, and 120 hours and with Vitamin D3 (1 alpha 25-dihydroxy) (Calbiochem, San Diego, Calif.) 2.5 uM for 72 hours. Differentiation was confirmed by morphological changes by light microscopy for monocyte/macrophage differentiation and by May Grunwald Giemsa stain for neutrophil differentiation.
Acute Myeloid Leukemia (AML) represents a form of cancer for which improved treatment in therapy is greatly sought. For more than 20 years, researchers have used a cell line (HL60 cell line) which closely mimics the behavior of AML and which is easily maintained in cell culture. […] The different gene expression signatures were evaluated for “in vivo authenticity” by confirming the same gene expression differences in native human neutrophils and native human monocytes compared to patient AML cells. […]

[3] = treated HL60 cells, text summary over 3 plex and 5 plex

SMILES | Ave IL1RN/GAPDH (HL60 cells [1]; 3 plex) | Ave SPP1/GAPDH (HL60 cells [1]; 3 plex) | IL1RN fold increase over AML (HL60 cells [1]; 3 plex) | SPP1 fold increase over AML (HL60 cells [1]; 3 plex) | Ave IL1RN/GAPDH (HL60 cells [1]; 5 plex) | Ave SPP1/GAPDH (HL60 cells [1]; 5 plex) | IL1RN fold increase over AML (HL60 cells [1]; 5 plex) | SPP1 fold increase over AML (HL60 cells [1]; 5 plex) | IL1RN increase with respect to AML (HL60 cells [1]; [3]) | SSP1 increase over AML (HL60 cells [1]; [3]) | differentiation of HL60 cells upon exposure (HL60 cells [2])
CCCCCCCCCCCCCC(=O)O[C@@H]1[C@@H](C)[C@@]2(O)[C@@H](C=C(CO)C[C@]3(O)C(=O)C(C)=C[C@@H]23)[C@@H]2C(C)(C)[C@]12OC(C)=O [PMA, Phorbol 12-myristate 13-acetate] | 2.04 | 1.17 | 84.4 fold | 55.1 fold | 0.98 | 0.55 | 40.5 fold | 25.9 fold | 40-84 fold | 25-55 fold | differentiated into monocyte/macrophage
CC1=C(/C=C/C(C)=C/C=C/C(C)=C/C(=O)O)C(C)(C)CCC1 [ATRA, all trans retinoic acid] | 0.02 | 0.03 | – | – | 0.02 | 0.02 | – | – | – | – | differentiated into neutrophils

— patent US20040009495A1, “Methods and products related to drug screening using gene expression patterns” (Whitehead Institute for Biomedical Research, priority 2001, published 2004)
